Experiments:
[1] = Unidirectional Caco-2 cell permeability assay; format: in vitro ADME; details: human, apical pH 6.5, basolateral pH 7.4, 1 hour, 37° C., n=2
Method: Caco-2 cells (ECACC) were seeded onto 24-well Transwell plates at 2×10^5 cells per well and used in confluent monolayers after a 21 day culture at 37° C. under 500 CO2. Test compounds were incubated at 10 μM, 0.2% DMSO final, n=2 in assay buffer (Hanks balanced salt solution supplemented with 25 mM HEPES, adjusted to pH 6.5). Hanks balanced salt solution supplemented with 25 mM HEPES, adjusted to pH 7.4 (0.2% DMSO final) was used for the basolateral chamber (as receiver).
Incubations were performed at 37° C., with samples removed from both donor and acceptor chambers at T=0 and 1 hour and compound analysed by mass spectrometry (LC-MS/MS) including an analytical internal standard ([…] carbamazepine).
Apparent permeability (Papp) values are shown in Table 3 and were determined from the relationship:
Where V is the volume of each Transwell compartment (apical 125 μL, basolateral 600 μL), and concentrations are the relative MS responses for compound (normalized to internal standard) in the donor chamber before incubation and acceptor chamber at the end of the incubation Area=area of cells exposed for drug transfer (0.33 cm^2).
Lucifer Yellow (LY) was added to the apical buffer in all wells to assess viability of the cell layer. As LY cannot freely permeate lipophilic barriers, a high degree of LY transport indicates poor integrity of the cell layer and wells with a LY Papp>10×10^−6 cm/s were rejected.
Compound recovery from the wells was determined from MS responses (normalized to internal standard) in donor and acceptor chambers at the end of incubation compared to response in the donor chamber pre-incubation.

human EP4 = target: T1, human EP4 (Homo sapiens, UniProt P35408); test: cAMP Gs functional assay (HTRF cAMP dynamic-2) in EP4-transfected HEK293 cells; format: cell-based; details: HEK293 cells transfected with EP4 BacMam virus; for EC50: 30 min at 37° C., HTRF cAMP, read-out: cAMP human EP4 pEC50 (converted); for cAMP human EP4 Emax: positive control PGE2
T1 construct: expressed in transfected cells; host or cells: HEK293 cells transduced with EP4 BacMam baculovirus
T1 sequence (P35408 whole entry): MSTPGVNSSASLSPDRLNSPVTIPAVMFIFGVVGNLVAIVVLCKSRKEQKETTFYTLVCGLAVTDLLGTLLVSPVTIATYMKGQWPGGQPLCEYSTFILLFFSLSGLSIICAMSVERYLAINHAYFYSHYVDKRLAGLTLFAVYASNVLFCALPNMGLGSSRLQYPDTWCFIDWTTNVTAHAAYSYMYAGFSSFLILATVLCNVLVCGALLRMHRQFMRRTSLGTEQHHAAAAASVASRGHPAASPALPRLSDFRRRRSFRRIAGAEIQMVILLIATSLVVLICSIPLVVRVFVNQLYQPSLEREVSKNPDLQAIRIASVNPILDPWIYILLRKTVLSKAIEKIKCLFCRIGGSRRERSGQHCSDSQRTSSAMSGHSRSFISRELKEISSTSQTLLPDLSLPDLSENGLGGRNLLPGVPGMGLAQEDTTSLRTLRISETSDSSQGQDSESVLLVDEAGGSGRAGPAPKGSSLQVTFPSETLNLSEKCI
Method: Cloning, Baculovirus generation, large scale infection of HEK293 cells and membrane preparation: Human prostaglandin E2 receptor 4 (EP4) was cloned into pBacMam expression vector (GeneScript, UK). Transposition of EP4 DNA was performed using Invitrogen's Bac-to-Bac Baculovirus Expression Systems. P0 baculovirus was generated by transfecting SF9 Cells with bacmid DNA using Cellfectin II transfection reagent (ThermoFisher Scientific, UK). Following P0 generation P1 virus was then generated ready for large scale infection and membrane preparation. HEK293 cells were grown in DMEM (ThermoFisher Scientific, UK), supplemented with 10% heat inactivated fetal bovine serum (FBS). Cells were infected at a seeding density of 3.5 million cells/mL in 500 cm^3 flasks at 5% v/v EP4 Bacman. Expression was carried out over a 36 hour period at 37° C. with 5% CO2. The cells were removed using PBS and a cell scrapper. The cell culture was centrifuged at 2500 RPM for 10 mins at 4° C. The supernatant was then poured off and the pellet stored at −80° C. The pellet was defrosted and re-suspended in 15 mL of homogenising buffer (20 mM HEPES, 10 mM EDTA, pH 7.4). Then homogenised in mechanical homogeniser (VMR) for 10 seconds. The membrane was centrifuged in centrifuge tubes at 40,000 g for 15 mins at 4° C. The supernatant was poured away and re-suspended in 15 mL of homogenising buffer and homogenised for 20 seconds. The membrane was then centrifuged at 40,000 g for 45 mins at 4° C. The membrane was then re-suspended in 3 mL of storage buffer (20 mM HEPES, 0.1 mM EDTA, pH 7.4) mixing well. The resulting membranes were then stored at −80° C.
cAMP Gs Functional Assay: cAMP production following EP4 receptor activation was determined using the Homogeneous Time-Resolved Fluorescence (HTRF) cAMP dynamic-2 assay (Cisbio, France). HEK293 cells were transfected using a 0.5% EP4 Bacman virus for 36 hours, before dissociating the cells, and freezing at −150° C.
On the day of testing, increasing concentration of test compounds, alongside positive controls ([…] PGE2 (Tocris, Abingdon, UK)) and negative control (DMSO (Sigma-Aldrich, UK) were added to a ProxiPlate-384 Plus, White 384-shallow well Mircoplate, (PerkinElmer, USA) using the ECHO dispense.
Cells were defrosted in a water bath and resuspended in DMEM supplemented with 10% FBS before centrifuging at 1200 RPM for 5 mins to form a pellet. The pellet was resuspended in assay buffer (DMEM+0.5 mM IBMX (Tocris, Abingdon, UK)) to 0.5×10^6 cells/mL. Cell suspension, for a final assay concentration of 5000 cell/well was added using the multidrop to the pre-dispensed assay plate. The plate was then incubated at 37° C. for 30 mins, with 5% CO2. The cAMP production was determined as manufacturer's instructions, before plates were read on a PheraStar fluorescence plate reader (BMG LabTech, Germany).

| SMILES | Papp A→B at 1 h, 10 μM [1] [×10⁻⁶ cm/s] | EC50 (human EP4) [nM] | cAMP human EP4 Emax (human EP4) [%] |
| --- | --- | --- | --- |
| Cc1cc(S(N)(=O)=O)ccc1-c1cccc(CN2CCC[C@@H]2C(=O)NC2(c3ccc(C(=O)O)cc3)CC2)c1 [Example 30, (R)-4-(1-(1-((2′-methyl-4′-sulfamoyl-[1,1′-biphenyl]-3-yl)methyl)pyrrolidine-2-carboxamido)cyclopropyl)benzoic acid] | 0.29 | 0.501 | 99 |
| Cc1cc(S(N)(=O)=O)ccc1-c1cccc(CN2CCC[C@@H]2C(=O)NCc2ccc(C(=O)O)c(O)c2)c1 [Example 16, (R)-2-hydroxy-4-((1-((2′-methyl-4′-sulfamoyl-[1,1′-biphenyl]-3-yl)methyl)pyrrolidine-2-carboxamido)methyl)benzoic acid] | 0.17 | 20 | 98 |
| Cc1cc(S(N)(=O)=O)ccc1-c1cccc(CN2CCC[C@@H]2C(=O)N[C@@H](C)c2ccc(C(=O)O)c(O)c2)c1 [Example 18, 2-hydroxy-4-((S)-1-((R)-1-((2′-methyl-4′-sulfamoyl-[1,1′-biphenyl]-3-yl)methyl)pyrrolidine-2-carboxamido)ethyl)benzoic acid] | 0.11 | 3.16 | 95 |
| C[C@H](NC(=O)[C@H]1CCCN1Cc1ccc(O)c(-c2ccc(S(N)(=O)=O)cc2)c1)c1ccc(C(=O)O)cc1 [Example 19] | < 0.12 | 100 | 90 |
| Cc1cc(S(N)(=O)=O)ccc1-c1cncc(CN2CCC[C@@H]2C(=O)N[C@@H](C)c2ccc(C(=O)O)cc2)c1 [Example 24, 4-((S)-1-((R)-1-((5-(2-methyl-4-sulfamoylphenyl)pyridin-3-yl)methyl)pyrrolidine-2-carboxamido)ethyl)benzoic acid] | 0.16 | 25.1 | 99 |
| C[C@H](NC(=O)[C@H]1CCCN1Cc1cccc(-c2ccc(S(N)(=O)=O)cc2O)c1)c1ccc(C(=O)O)cc1 [Example 22] | < 0.1 | 126 | 85 |
| C[C@H](NC(=O)[C@H]1CCCN1Cc1cccc(-c2ccc(O)cc2C#N)c1)c1ccc(C(=O)O)cc1 [Example 8, 4-((S)-1-((R)-1-((2′-cyano-4′-hydroxy-[1,1′-biphenyl]-3-yl)methyl)pyrrolidine-2-carboxamido)ethyl)benzoic acid] | 2.1 | 31.6 | 74 |
| Cc1cc(C(N)=O)ccc1-c1cc(O)cc(CN2CCC[C@@H]2C(=O)N[C@@H](C)c2ccc(C(=O)O)c(O)c2)c1 [Example 34, 4-((S)-1-((R)-1-((4′-carbamoyl-5-hydroxy-2′-methyl-[1,1′-biphenyl]-3-yl)methyl)pyrrolidine-2-carboxamido)ethyl)-2-hydroxybenzoic acid] | 0.24 | 0.2 | 100 |
| Cc1cc(C(N)=O)ccc1-c1cccc(CN2CCC[C@@H]2C(=O)N[C@@H](C)c2ccc(C(=O)O)c(O)c2)c1 [Example 17, 4-((S)-1-((R)-1-((4′-carbamoyl-2′-methyl-[1,1′-biphenyl]-3-yl)methyl)pyrrolidine-2-carboxamido)ethyl)-2-hydroxybenzoic acid] |  | 63.1 | 97 |
| Cc1cc(C(N)=O)ccc1-c1cncc(CN2C[C@H](O)C[C@@H]2C(=O)N[C@@H](C)c2ccc(C(=O)O)cc2)c1 [Example 25, 4-((S)-1-((2R,4R)-1-((5-(4-carbamoyl-2-methylphenyl)pyridin-3-yl)methyl)-4-hydroxypyrrolidine-2-carboxamido)ethyl)benzoic acid] |  | 1260 | 91 |

Further lines, results first:

| Papp A→B at 1 h, 10 μM [1] [×10⁻⁶ cm/s] | EC50 (human EP4) [nM] | cAMP human EP4 Emax (human EP4) [%] | SMILES |
| --- | --- | --- | --- |
| 1.84 | 2 | 96 | Cc1cc(OS(N)(=O)=O)ccc1-c1cccc(CN2CCC[C@@H]2C(=O)N[C@@H](C)c2ccc(C(=O)O)cc2)c1 [Example 10] |
| < 0.28 | 6.31 | 85 | Cc1cc(S(N)(=O)=O)ccc1-c1cccc(CN2CC3CC2(C(=O)NC2(c4ccc(C(=O)O)cc4)CC2)C3)c1 [Example 27, 4-(1-(2-((2′-methyl-4′-sulfamoyl-[1,1′-biphenyl]-3-yl)methyl)-2-azabicyclo[2.1.1]hexane-1-carboxamido)cyclopropyl)benzoic acid] |
| 0.18 | 20 | 92 | C[C@H](NC(=O)[C@H]1CCCN1Cc1cccc(-c2ccc(C(N)=O)cc2O)c1)c1ccc(C(=O)O)cc1 [Example 11, 4-((S)-1-((R)-1-((4′-carbamoyl-2′-hydroxy-[1,1′-biphenyl]-3-yl)methyl)pyrrolidine-2-carboxamido)ethyl)benzoic acid] |
|  | > 1000 |  | Cc1cc(C(N)=O)ccc1-c1cc(CN2CCC[C@@H]2C(=O)N[C@@H](C)c2ccc(C(=O)O)cc2)c[n+]([O-])c1 [Example 26, 3-(4-carbamoyl-2-methylphenyl)-5-(((R)-2-(((S)-1-(4-carboxyphenyl)ethyl)carbamoyl)pyrrolidin-1-yl)methyl)pyridine 1-oxide] |
| 0.85 | 501 | 91 | Cc1cc(C(N)=O)ccc1-c1cccc(CN2C[C@H](O)C[C@@H]2C(=O)N[C@@H](C)c2ccc(C(=O)O)cc2)c1 [Example 6, 4-((S)-1-((2R,4R)-1-((4′-carbamoyl-2′-methyl-[1,1′-biphenyl]-3-yl)methyl)-4-hydroxypyrrolidine-2-carboxamido)ethyl)benzoic acid] |
| < 0.12 | 25.1 | 76 | Cc1cc(C(N)=O)ccc1-c1cccc(CN2CC3CC2(C(=O)N[C@@H](C)c2ccc(C(=O)O)cc2)C3)c1 [Example 28, (S)-4-(1-(2-((4′-carbamoyl-2′-methyl-[1,1′-biphenyl]-3-yl)methyl)-2-azabicyclo[2.1.1]hexane-1-carboxamido)ethyl)benzoic acid] |
| 0.36 | 63.1 | 80 | Cc1cc(O)ccc1-c1cccc(CN2C[C@H](O)C[C@@H]2C(=O)N[C@@H](C)c2ccc(C(=O)O)cc2)c1 [Example 5, 4-((S)-1-((2R,4R)-4-hydroxy-1-((4′-hydroxy-2′-methyl-[1,1′-biphenyl]-3-yl)methyl)pyrrolidine-2-carboxamido)ethyl)benzoic acid] |
|  | 0.398 | 90 | Cc1cc(S(N)(=O)=O)ccc1-c1cccc(CN2CC3CC2(C(=O)N[C@@H](C)c2ccc(C(=O)O)cc2)C3)c1 [Example 32, (S)-4-(1-(2-((2′-methyl-4′-sulfamoyl-[1,1′-biphenyl]-3-yl)methyl)-2-azabicyclo[2.1.1]hexane-1-carboxamido)ethyl)benzoic acid] |
